Measurements reported in patent EP0540143B1, “Compounds and methods for inhibition of HIV and related viruses” (priority 1991, dated 1993).
Values joined by “and” are separate entries in the source; they are usually repeats but may differ in a detail not shown here. Identical values can stand only once.

Columns and labels:
SIV virus = assay: Test C (XTT), MT4 cells infected with SIV; type: cell-based; details: Simian immunodeficiency virus, MT4, Test C
Protocol: (§1) Tests A, B, C, and D (XTT)
(§2) MT4 cells in a medium of RPMI 1640, 5% FCS, penicillin/streptomycin are adjusted to 2x10^5 cells/ml and seeded into microplates (96 wells/plate) 100 µl cell suspension/well giving 2x10^4 cells/well. The compound to be tested is made into a 10 mg/ml mixture in DMSO and stored at -20°C. The compound in DMSO is diluted with medium containing 10% DMSO in a 10-fold dilution series to give 1 mg/ml, 10 mg/ml, and […] solutions. Further dilutions to 400, 40, 4 and 0.4 mg/ml are made in medium containing microplates. Fifty µl of the 400, 40, and 4 mg/ml are transferred to the cell-containing microplates with a multi-channel pipette (final concentration: 100, 10, and 1 mg/ml). Finally, 50 µl of virus suspension is added to each well (with a repetitive "Eppendorf" multipipett). Each plate has at least six wells with the following: [Test A: HIV virus; Test B: HIV(II) virus; Test C: SIV virus; Test D: No virus]; with no drug (virus control) and six wells without virus (medium control). The plate is put into a plastic bag and incubated for six days in CO2 atmosphere. To each well in the plate is added 50 µl of XTT ((2,3-bis[2-methoxy-4-nitro-5-sulfophenyl]-5-[(phenylamino)carbonyl]-2H-tetrazolium hydroxide), (1 mg/ml 0.01-0.02 mM N-metyl-phenazonium methosulfate). After six hours of incubation in CO2 atmosphere the plates are covered with adhesive plate sealers and gently mixed on a vortex. Optical densities are determined at a wavelength of 450 nm and a reference wavelength of 650 nm. The percent reduction of cytotoxocity caused by the virus infection is calculated as follows: (OD450 compound - OD450 inf cells)/(OD450 uninf cells - OD450 inf cells)x 100 [formula]

HIV-1 = assay: Test E (HIV-1 RT), RT activity in supernatant of infected MT-4/H9 cells; type: cell-based; details: Human immunodeficiency virus 1, H9, Test E
Protocol: (§3) Tests E, F, G, H (HIV-IRT, HIV-2RT, SIVRT, no virus)
(§4) MT-4/H9-cells are adjusted to 2x10^5 cells/ml medium (RPMI 1640, 5% FCS, penicillin/streptomycin) and seeded into microplates (96 wells/plate) […] cell suspension/well giving 2 x 10^4 cells/well. The compound to be tested is made 10 mg/ml in DMSO = stock solution (stored at -20°C). The compound dissolved in DMSO is diluted 25 times in medium to give 400 mg/ml. Further dilutions to 40 mg/ml and 4 mg/ml are made in microplates.
(§5) 50 µl of the dilutions 400 mg/ml, 40 mg/ml and 4mg/ml are transferred to the "cell-containing" microplate with a multichannel pipette. […]
(§6) Finally 50 µl of virus suspension is added to each well (with a repetitive "Eppendorf multipett"). [Test E-HIV-1; Test F-HIV-2; Test G-SIV; Test H-no virus].
(§7) Each plate has at least four wells with virus but no drug (virus control) and two wells without virus (medium control). The plate is put into a plastic bag to avoid evaporation and incubated for six days in CO2-atmosphere. 10 µl supernatant from each well is transferred with a multichannel pipette into a new microplate to which 40 ml VDB, (50 mM Tris-HCl pH = 7.6, 35 mM KCl, 4 mM DTT, 1 mM EDTA, 1.3% Triton X-100), have been added to each well. The addition of 50 ml RT-reaction mix, (10 ml culture supernatant, 40 ml VDB and 50 ml reaction mixture giving a final concentration of: 100 mM Tris-HCl pH = 7.6, 100 mM KCl, 4 mM MgCl2, 4 mM DTT, 275 mg/ml BSA/ml, 5 mg (rA)n(dT)12-18/ml and 0.3 mM ^3H dTTP (specific activity 18.000 cpm/pmol)) gives a final volume of […]/well. After 60 minutes of incubation the whole assay volume is transferred by use of a cell harvester to a filter mat prewetted with 5% TCA. The filter is washed in 5% TCA and rinsed once in ethanol. After drying the filter mat at 60°C for 30 min. each filter (96/mat) is punched out and put into counting vials 2 ml of scintillation fluid is added and the samples are counted (1 min) or the whole filter mat is put into a plastic bag, 10 ml of scintillation fluid is added and the filter mat is counted in a Beckman Betaplate counter. Percent reduction of RT activity is determined by comparing RT activity for virus control with the RT activity measured for each dilution of the compound.

recombinant HIV-RT = recombinant HIV-RT (Human immunodeficiency virus type 1 group M subtype B, UniProt P04585); assay: Test I (HIVRT (rAdt)), direct inhibition of recombinant HIV-RT; type: biochemical
Protocol: The compounds were tested for direct inhibitory activity on HIV-RT in a volume of […] recombinant HIV-RT (diluted in virus disruption buffer to give 200.000 cpm).
100 mM Tris-HCl pH 7.6, 100 mM KCl, 4 mM MgCl2, 4 mM DTT, 275 mg/ml BSA, 0.5 mg (rA)n(dT)12-18 and 0.3 mM ^3H- dTTP (specific activity […]). After 60 minutess of incubation 40 ml in duplicate were spotted on paper discs and washed in 5% TCA. After rinsing the paper discs in ethanol they were dried and counted in scintillation fluid.

HIV-2 = assay: Test F (HIV-2 RT), RT activity in supernatant of infected MT-4/H9 cells; type: cell-based; details: Human immunodeficiency virus 2, H9, Test F
Protocol: as §3, §4, §5, §6, §7

MT4 cells = assay: Test D (XTT), MT4 cells, no virus; type: cell-based; details: Homo sapiens
Protocol: as §1, §2

HIV virus = assay: Test A (XTT), MT4 cells infected with HIV; type: cell-based; details: for % inhibition: Test A
Protocol: as §1, §2

HIV(II) virus = assay: Test B (XTT), MT4 cells infected with HIV(II); type: cell-based; details: Human immunodeficiency virus 1, MT4, Test B
Protocol: as §1, §2

[1] = Human immunodeficiency virus 1, MT4, Test A, 10 µg/ml
[2] = Human immunodeficiency virus 1, MT4, Test A, 0.1 µg/ml

SMILES	inhibition at 1 µg/mL (SIV virus) [%]	inhibition at 10 µg/mL (SIV virus) [%]	inhibition at 100 µg/mL (SIV virus) [%]	inhibition at 0.1 µg/mL (HIV-1) [%]	inhibition at 1 µg/mL (HIV-1) [%]	inhibition at 10 µg/mL (HIV-1) [%]	inhibition at 100 µg/mL (HIV-1) [%]	inhibition at 0.1 µg/mL (recombinant HIV-RT; 0.1 µg/ml) [%]	inhibition at 1 µg/mL (recombinant HIV-RT; 1 µg/ml) [%]	inhibition at 10 µg/mL (recombinant HIV-RT; 10 µg/ml) [%]	inhibition at 0.1 µg/mL (HIV-2) [%]	inhibition at 1 µg/mL (HIV-2) [%]	inhibition at 10 µg/mL (HIV-2) [%]	inhibition at 100 µg/mL (HIV-2) [%]	inhibition at 10 µg/mL (MT4 cells) [%]	inhibition at 100 µg/mL (MT4 cells) [%]	inhibition at 0.1 µg/mL (HIV(II) virus) [%]	inhibition at 1 µg/mL (HIV(II) virus) [%]	inhibition at 10 µg/mL (HIV(II) virus) [%]	inhibition at 100 µg/mL (HIV(II) virus) [%]	further results
FC(F)(F)c1csc(NC(=S)NCCc2ccccc2)n1	11	5	43	98	97	96	97	63	73	73	56	95	98	96	75	68	21	100	38	19	inhibition at 0.1 µg/mL (SIV virus; 0.1 µg/ml): 9%; % inhibition (recombinant HIV-RT; 0.1 µg/ml): 68%; % inhibition (recombinant HIV-RT; 1 µg/ml): 75%; % inhibition (recombinant HIV-RT; 10 µg/ml): 75%; inhibition at 0.1 µg/mL (MT4 cells; 0.1 µg/ml): 0%; inhibition at 1 µg/mL (MT4 cells): 46%; inhibition at 10 µg/mL (HIV virus; [1]): 24%; % inhibition (HIV virus; 0.1 µg/ml): 62% and 84%; % inhibition (HIV virus; 1 µg/ml): 100% and 75% and 84%; % inhibition (HIV virus; 10 µg/ml): 16% and 31%
Cc1nc(NC(=S)NCCc2ccccc2)sc1C	0	1	0	1	23	91	94	34	39	38	1	92	61	93	0	0	13	100	100	85	inhibition at 0.1 µg/mL (HIV virus; [2]): 7%; inhibition at 10 µg/mL (HIV virus; [1]): 85%; inhibition at 100 µg/mL (HIV virus; Human immunodeficiency virus 1, MT4, Test A, 100 µg/ml): 99%; % inhibition (HIV virus; 10 µg/ml): 88%; % inhibition (HIV virus; 100 µg/ml): 100%
S=C(NCCc1ccccc1)Nc1nc2ccccc2s1	0	1	8	1	77	96	95	39	36	40	1	87	84	96	27	23	17	99	100	50	inhibition at 1 µg/mL (MT4 cells): 32%; inhibition at 0.1 µg/mL (HIV virus; [2]): 0%; inhibition at 1 µg/mL (HIV virus; Human immunodeficiency virus 1, MT4, Test A, 1 µg/ml): 63%; inhibition at 10 µg/mL (HIV virus; [1]): 100%; % inhibition (HIV virus; 1 µg/ml): 53%; % inhibition (HIV virus; 10 µg/ml): 99%
Fc1ccc2nc(NC(=S)NCCc3ccccc3)sc2c1	2	5	19	1	51	16	95	33	38	39	4	77	62	97	28	0	4	40	12	93	inhibition at 1 µg/mL (MT4 cells): 5%; % inhibition (HIV virus; 100 µg/ml): 100% and 72%
